Measurements reported in patent publication US20260077051A1, “COMPOUNDS FOR THE DEGRADATION OF EGFR KINASE” (BeOne Medicines I GmbH, priority 2023, published 2026).

Key:
[1] = biological target: T1, EGFR-L858R/C797S (H1975-clone #8 cells) (Homo sapiens, UniProt P00533, C797S/L858R); test: EGFR degradation in H1975-clone#8 (L858R/C797S) cells (HTRF assay); assay type: cell-based; details: 16 h treatment; for DC50: IC50(DC50) of EGFR degradation; for Dmax: maximum percentage of inhibition (degradation)
T1 construct: expressed in transfected cells; host or cells: H1975 (lentiviral transduction, endogenous EGFR knocked out, single clone #8)
How it was run: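 H1975 cells engineered to carry only homozygous exogenous EGFR L858R/C797S (clone #8) treated 16 h at 37 °C with compound, 8 doses from 10 uM in 5-fold steps, 0.1% DMSO. Remaining EGFR in lysates measured by HTRF; degradation percentage relative to DMSO control, DC50 and Dmax from 4-parameter fit.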

[2] = biological target: T2, EGFR L858R (BaF3-L858R cells) (Homo sapiens, UniProt P00533, L858R); test: EGFR degradation in BaF3-L858R cells (HTRF assay); assay type: cell-based; details: 16 h treatment; for DC50: IC50(DC50) of EGFR degradation; for Dmax: maximum percentage of inhibition (degradation)
T2 construct: host or cells: BaF3
How it was run: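 BaF3-L858R cells were exposed for 16 h at 37° C to 8 doses, 5-fold dilutions starting at 10 uM final, in 0.1% DMSO medium. Lysates were incubated overnight with HTRF antibodies and read at 665/620 nm. Degradation was taken relative to DMSO control, and DC50 and Dmax came from a four-parameter fit.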

T2 sequence (P00533 25-1210 L858R): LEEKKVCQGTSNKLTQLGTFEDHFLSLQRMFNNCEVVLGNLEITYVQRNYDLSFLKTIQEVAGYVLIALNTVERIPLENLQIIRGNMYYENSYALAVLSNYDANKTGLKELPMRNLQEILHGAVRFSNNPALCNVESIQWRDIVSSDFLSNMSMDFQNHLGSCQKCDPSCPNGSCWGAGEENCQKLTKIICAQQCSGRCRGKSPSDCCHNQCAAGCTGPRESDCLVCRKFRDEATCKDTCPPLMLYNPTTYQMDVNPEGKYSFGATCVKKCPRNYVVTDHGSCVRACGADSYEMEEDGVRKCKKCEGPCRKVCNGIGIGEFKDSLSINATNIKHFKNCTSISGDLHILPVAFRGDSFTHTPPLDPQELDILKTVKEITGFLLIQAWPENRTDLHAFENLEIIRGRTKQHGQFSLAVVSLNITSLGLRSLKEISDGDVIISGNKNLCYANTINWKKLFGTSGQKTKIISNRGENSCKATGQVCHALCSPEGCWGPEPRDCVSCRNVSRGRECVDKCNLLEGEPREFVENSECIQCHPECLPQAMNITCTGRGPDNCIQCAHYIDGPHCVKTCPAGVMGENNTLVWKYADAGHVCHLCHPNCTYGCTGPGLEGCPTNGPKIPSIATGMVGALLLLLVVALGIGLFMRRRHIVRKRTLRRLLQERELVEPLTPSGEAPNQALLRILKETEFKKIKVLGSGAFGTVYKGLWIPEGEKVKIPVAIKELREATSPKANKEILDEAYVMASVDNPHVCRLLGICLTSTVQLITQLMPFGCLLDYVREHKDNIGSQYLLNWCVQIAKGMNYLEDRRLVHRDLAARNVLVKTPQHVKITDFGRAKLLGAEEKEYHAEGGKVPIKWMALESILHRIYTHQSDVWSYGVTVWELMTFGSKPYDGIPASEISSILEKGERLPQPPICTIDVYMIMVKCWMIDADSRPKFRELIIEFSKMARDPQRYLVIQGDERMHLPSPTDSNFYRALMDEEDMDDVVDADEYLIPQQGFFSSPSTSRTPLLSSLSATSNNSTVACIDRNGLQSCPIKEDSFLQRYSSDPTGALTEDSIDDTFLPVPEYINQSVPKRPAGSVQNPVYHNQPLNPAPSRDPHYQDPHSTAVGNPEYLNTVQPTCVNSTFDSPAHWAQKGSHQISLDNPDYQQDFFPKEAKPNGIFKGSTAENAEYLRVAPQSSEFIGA
T1 sequence (P00533 25-1210 C797S/L858R): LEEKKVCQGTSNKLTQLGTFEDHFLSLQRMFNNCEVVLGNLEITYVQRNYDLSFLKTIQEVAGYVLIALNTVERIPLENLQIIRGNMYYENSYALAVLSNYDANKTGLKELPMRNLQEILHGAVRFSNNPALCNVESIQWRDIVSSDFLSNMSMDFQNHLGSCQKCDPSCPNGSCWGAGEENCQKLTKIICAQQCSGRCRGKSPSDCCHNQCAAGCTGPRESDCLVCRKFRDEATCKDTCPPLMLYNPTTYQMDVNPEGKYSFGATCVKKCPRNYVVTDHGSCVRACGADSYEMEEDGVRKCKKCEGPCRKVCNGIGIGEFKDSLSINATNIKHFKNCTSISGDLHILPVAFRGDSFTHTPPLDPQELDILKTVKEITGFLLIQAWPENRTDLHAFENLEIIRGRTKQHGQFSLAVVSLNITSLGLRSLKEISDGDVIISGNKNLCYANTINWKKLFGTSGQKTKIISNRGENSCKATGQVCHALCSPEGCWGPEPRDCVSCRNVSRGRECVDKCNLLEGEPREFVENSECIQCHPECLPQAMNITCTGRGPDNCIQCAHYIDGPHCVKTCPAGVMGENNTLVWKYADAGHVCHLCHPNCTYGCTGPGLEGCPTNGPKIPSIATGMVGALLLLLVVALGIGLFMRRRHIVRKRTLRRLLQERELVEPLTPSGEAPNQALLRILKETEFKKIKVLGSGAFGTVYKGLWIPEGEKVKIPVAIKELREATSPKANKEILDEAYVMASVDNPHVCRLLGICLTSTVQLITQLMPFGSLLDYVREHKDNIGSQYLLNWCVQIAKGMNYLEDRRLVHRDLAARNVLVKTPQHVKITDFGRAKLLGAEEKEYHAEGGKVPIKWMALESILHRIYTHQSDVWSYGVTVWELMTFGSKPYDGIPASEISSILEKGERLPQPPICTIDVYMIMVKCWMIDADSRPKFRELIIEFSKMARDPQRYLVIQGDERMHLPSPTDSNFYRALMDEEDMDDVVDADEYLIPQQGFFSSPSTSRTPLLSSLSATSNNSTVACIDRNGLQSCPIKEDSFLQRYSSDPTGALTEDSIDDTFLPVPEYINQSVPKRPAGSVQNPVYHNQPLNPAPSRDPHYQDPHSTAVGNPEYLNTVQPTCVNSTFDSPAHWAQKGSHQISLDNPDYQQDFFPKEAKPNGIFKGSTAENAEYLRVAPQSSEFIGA

Row | DC50 [1] | Dmax [1] | DC50 [2] | Dmax [2] | SMILES
1 | 8.44 nM | 41.4% | 22 nM | 59% | Cc1cc2cc(n1)-c1cnn(C)c1OCC[C@H]1C[C@@H]1CN1/C(=N/C2=O)Nc2ccc(N3CCN(CCc4cc(F)c([C@H]5CCC(=O)NC5=O)c(F)c4)C(C4CCOC4)C3)cc21 (stereo partly drawn) [Example 35, (3R)-3-(4-(2-(4-((7^1S,7^2R,E)-1^1,2^6-dimethyl-3-oxo-5^2,5^3-dihydro-1^1H,5^1H-10-oxa-4-aza-5 (2,1)-benzo[d]imidazola-2 (2,4)-pyridina-1 (4,5)-pyrazola-7 (1,2)-cyclopropanacyclodecaphane-5^6-yl)-2-(tetrahydrofuran-3-yl)piperazin-1-yl)ethyl)-2,6-difluorophenyl)piperidine-2,6-dione]
2 | 2.61 nM | 41.7% | 13.4 nM | 68.5% | Cc1cc2cc(n1)-c1cnn(C)c1OCC[C@H]1C[C@@H]1CN1/C(=N/C2=O)Nc2ccc(N3CCN(C4CN(C5CCN(c6ccc(C7CCC(=O)NC7=O)nc6C)CC5)C4)C[C@@H]3C)cc21 (stereo partly drawn) [Example 36, 3-(5-(4-(3-((S)-4-((7^1S,7^2R,E)-1^1,2^6-dimethyl-3-oxo-5^2,5^3-dihydro-1^1H,5^1H-10-oxa-4-aza-5 (2,1)-benzo[d]imidazola-2 (2,4)-pyridina-1 (4,5)-pyrazola-7 (1,2)-cyclopropanacyclodecaphane-5^6-yl)-3-methylpiperazin-1-yl)azetidin-1-yl)piperidin-1-yl)-6-methylpyridin-2-yl)piperidine-2,6-dione]
3 | 8.34 nM | 55.9% | 7.92 nM | 64.5% | Cc1cc2cc(n1)-c1cnn(C)c1OCC[C@H]1C[C@@H]1CN1/C(=N/C2=O)Nc2ccc(N3CCN(C4CN(C5CCN(c6ccc(C7CCC(=O)NC7=O)nc6C)CC5)C4)C[C@H]3C)cc21 (stereo partly drawn) [Example 37, 3-(5-(4-(3-((R)-4-((7^1S,7^2R,E)-1^1,2^6-dimethyl-3-oxo-5^2,5^3-dihydro-1^1H,5^1H-10-oxa-4-aza-5 (2,1)-benzo[d]imidazola-2 (2,4)-pyridina-1 (4,5)-pyrazola-7 (1,2)-cyclopropanacyclodecaphane-5^6-yl)-3-methylpiperazin-1-yl)azetidin-1-yl)piperidin-1-yl)-6-methylpyridin-2-yl)piperidine-2,6-dione]
4 | 2.81 nM | 88.8% | 1.74 nM | 86.2% | Cc1cc2cc(n1)-c1cnn(C)c1OCC[C@]1(C)C[C@H]1CN1/C(=N/C2=O)Nc2ccc(N3CCN([C@@H]4CCN(c5cc(F)c(C6CCC(=O)NC6=O)nc5C)C[C@@H]4F)CC3)cc21 (stereo partly drawn) [Example 43, 3-(3-fluoro-5-((3S,4R)-3-fluoro-4-(4-((7^1R,7^2S,E)-1^1,2^6,7^2-trimethyl-3-oxo-5^2,5^3-dihydro-1^1H,5^1H-10-oxa-4-aza-5 (2,1)-benzo[d]imidazola-2 (2,4)-pyridina-1 (4,5)-pyrazola-7 (1,2)-cyclopropanacyclodecaphane-5^6-yl)piperazin-1-yl)piperidin-1-yl)-6-methylpyridin-2-yl)piperidine-2,6-dione]
5 | 0.942 nM | 86.9% | 0.418 nM | 86.7% | Cc1cc2cc(n1)-c1cnn(C)c1OCC[C@]1(C)C[C@H]1CN1/C(=N/C2=O)Nc2ccc(N3CCN([C@@H]4CCN(c5ccc(C6CCC(=O)NC6=O)nc5C)C[C@@H]4F)CC3)cc21 (stereo partly drawn) [Example 49, 3-(5-((3S,4R)-3-fluoro-4-(4-((7^1R,7^2S,E)-1^1,2^6,7^2-trimethyl-3-oxo-5^2,5^3-dihydro-1^1H,5^1H-10-oxa-4-aza-5 (2,1)-benzo[d]imidazola-2 (2,4)-pyridina-1 (4,5)-pyrazola-7 (1,2)-cyclopropanacyclodecaphane-5^6-yl)piperazin-1-yl)piperidin-1-yl)-6-methylpyridin-2-yl)piperidine-2,6-dione]
6 | 2.11 nM | 77.7% | 3.35 nM | 91.9% | Cc1cc2cc(n1)-c1cnn(C)c1OCC[C@]1(C)C[C@H]1CN1/C(=N/C2=O)Nc2ccc(N3CCN(C4CCN(c5cc(F)c(C6CCC(=O)NC6=O)nc5C)CC4)CC3)cc21 (stereo partly shown) [Example 54, 3-(3-fluoro-6-methyl-5-(4-(4-((7^1R,7^2S,E)-1^1,2^6,7^2-trimethyl-3-oxo-5^2,5^3-dihydro-1^1H,5^1H-10-oxa-4-aza-5 (2,1)-benzo[d]imidazola-2 (2,4)-pyridina-1 (4,5)-pyrazola-7 (1,2)-cyclopropanacyclodecaphane-5^6-yl)piperazin-1-yl)piperidin-1-yl)pyridin-2-yl)piperidine-2,6-dione]
7 | 4.21 nM | 61.7% | 3.2 nM | 91.3% | Cc1cc2cc(n1)-c1cnn(C)c1OCC[C@]1(C)C[C@H]1CN1/C(=N/C2=O)Nc2ccc(N3CCN([C@@H]4CCN(c5cccc6c5C(C)(C)C(=O)N6C5CCC(=O)NC5=O)C[C@@H]4F)CC3)cc21 (stereo partly drawn) [Example 57, 3-(4-((3S,4R)-3-fluoro-4-(4-((7^1R,7^2S,E)-1^1,2^6,7^2-trimethyl-3-oxo-5^2,5^3-dihydro-1^1H,5^1H-10-oxa-4-aza-5 (2,1)-benzo[d]imidazola-2 (2,4)-pyridina-1 (4,5)-pyrazola-7 (1,2)-cyclopropanacyclodecaphane-5^6-yl)piperazin-1-yl)piperidin-1-yl)-3,3-dimethyl-2-oxoindolin-1-yl)piperidine-2,6-dione]
8 | 0.635 nM | 72.7% | 3.54 nM | 95.5% | Cc1cc2cc(n1)-c1cnn(C)c1OCC[C@]1(C)C[C@H]1CN1/C(=N/C2=O)Nc2ccc(N3CCN([C@@H]4CCN(c5cnc(C6CCC(=O)NC6=O)cc5C)C[C@@H]4F)CC3)cc21 (stereo partly drawn) [Example 59, 3-(5-((3S,4R)-3-fluoro-4-(4-((7^1R,7^2S,E)-1^1,2^6,7^2-trimethyl-3-oxo-5^2,5^3-dihydro-1^1H,5^1H-10-oxa-4-aza-5 (2,1)-benzo[d]imidazola-2 (2,4)-pyridina-1 (4,5)-pyrazola-7 (1,2)-cyclopropanacyclodecaphane-5^6-yl)piperazin-1-yl)piperidin-1-yl)-4-methylpyridin-2-yl)piperidine-2,6-dione]
9 | 1.29 nM | 80.8% | 0.99 nM | 91.8% | Cc1cc2cc(n1)-c1cnn(C)c1OCC[C@]1(C)C[C@H]1CN1/C(=N/C2=O)Nc2ccc(N3CCN([C@H]4CCN(c5cc(F)c(C6CCC(=O)NC6=O)nc5C)C[C@H]4F)CC3)cc21 (stereo partly drawn) [Example 61, 3-(3-fluoro-5-((3R,4S)-3-fluoro-4-(4-((7^1R,7^2S,E)-1^1,2^6,7^2-trimethyl-3-oxo-5^2,5^3-dihydro-1^1H,5^1H-10-oxa-4-aza-5 (2,1)-benzo[d]imidazola-2 (2,4)-pyridina-1 (4,5)-pyrazola-7 (1,2)-cyclopropanacyclodecaphane-56-yl)piperazin-1-yl)piperidin-1-yl)-6-methylpyridin-2-yl)piperidine-2,6-dione]
10 | 0.612 nM | 76.8% | 0.69 nM | 93.8% | Cc1cc2cc(n1)-c1cnn(C)c1OCC[C@]1(C)C[C@H]1CN1/C(=N/C2=O)Nc2ccc(N3CCN([C@H]4CCN(c5ccc(C6CCC(=O)NC6=O)nc5C)C[C@H]4F)CC3)cc21 (stereo partly drawn) [Example 62, 3-(5-((3R,4S)-3-fluoro-4-(4-((7^1R,7^2S,E)-1^1,2^6,7^2-trimethyl-3-oxo-5^2,5^3-dihydro-1^1H,5^1H-10-oxa-4-aza-5 (2,1)-benzo[d]imidazola-2 (2,4)-pyridina-1 (4,5)-pyrazola-7 (1,2)-cyclopropanacyclodecaphane-5^6-yl)piperazin-1-yl)piperidin-1-yl)-6-methylpyridin-2-yl)piperidine-2,6-dione]
